Experiments:
SW480 = assay: Cytotoxicity against human SW480 cells assessed as cell survival measured at 2 uM after 72 hrs by MTS assay relative to control; assay type: functional; settings: read-out: Activity
U-87 MG = assay: Cytotoxicity against human U-87 MG cells assessed as cell survival measured at 2 uM after 72 hrs by MTS assay relative to control; assay type: functional, U-87MG ATCC; settings: read-out: Activity
MCF7 = assay: Cytotoxicity against human MCF7 cells assessed as cell survival measured at 2 uM after 72 hrs by MTS assay relative to control; assay type: functional; settings: read-out: Activity
HCT-116 = assay: Cytotoxicity against human HCT-116 cells assessed as cell survival measured at 2 uM after 72 hrs by MTS assay relative to control; assay type: functional; settings: read-out: Activity
DLD-1 [1] = assay: Cytotoxicity against human DLD-1 cells assessed as cell survival measured at 2 uM after 72 hrs by MTS assay relative to control; assay type: functional; settings: read-out: Activity
MDA-MB-231 [2] = assay: Cytotoxicity against human MDA-MB-231 cells assessed as cell survival measured at 2 uM after 72 hrs by MTS assay relative to control; assay type: functional; settings: read-out: Activity
MDA-MB-231 [3] = assay: Cytotoxicity against human MDA-MB-231 cells assessed as growth inhibition after 72 hrs by MTS assay; assay type: functional, cell-based; settings: MDA-MB-231, 72 h
DLD-1 [4] = assay: Cytotoxicity against human DLD1 cells assessed as growth inhibition after 72 hrs by MTS assay; assay type: functional, cell-based; settings: DLD-1, 72 h

O=C1C(Cl)=C(NCCCN2CCOCC2)C(=O)c2ncccc21
viability at 2 µM (SW480): 105% | viability at 2 µM (U-87 MG): 76.8% | viability at 2 µM (MCF7): 95.1% | viability at 2 µM (HCT-116): 56.3% | viability at 2 µM (DLD-1 [1]): 67.7% | viability at 2 µM (MDA-MB-231 [2]): 87.8%

O=C1C(Cl)=C(NCCCCN2CCOCC2)C(=O)c2ncccc21
viability at 2 µM (U-87 MG): 81.5% | viability at 2 µM (HCT-116): 53.9% | viability at 2 µM (DLD-1 [1]): 77.3% | viability at 2 µM (MDA-MB-231 [2]): 88.6%

O=C1C(Cl)=C(NCCN2CCOCC2)C(=O)c2ccc(Cl)cc21
viability at 2 µM (SW480): 106% | viability at 2 µM (U-87 MG): 103% | viability at 2 µM (MCF7): 101% | viability at 2 µM (HCT-116): 93% | viability at 2 µM (DLD-1 [1]): 91.5% | viability at 2 µM (MDA-MB-231 [2]): 95.9%

O=C1C(Cl)=C(NCCN2CCOCC2)C(=O)c2cc([N+](=O)[O-])ccc21
viability at 2 µM (SW480): 76.8% | viability at 2 µM (U-87 MG): 89.1% | viability at 2 µM (MCF7): 90.5% | viability at 2 µM (HCT-116): 66% | viability at 2 µM (DLD-1 [1]): 54.9% | viability at 2 µM (MDA-MB-231 [2]): 66.8%

O=C1C(Cl)=C(NCCCCCN2CCOCC2)C(=O)c2ncccc21
viability at 2 µM (SW480): 98.1% | viability at 2 µM (U-87 MG): 79.6% | viability at 2 µM (MCF7): 84.7% | viability at 2 µM (HCT-116): 59.7% | viability at 2 µM (DLD-1 [1]): 78.9% | viability at 2 µM (MDA-MB-231 [2]): 85.9%

O=C1C(Cl)=C(NCCN2CCOCC2)C(=O)c2ccc([N+](=O)[O-])cc21
viability at 2 µM (SW480): 94.2% | viability at 2 µM (U-87 MG): 106% | viability at 2 µM (MCF7): 106% | viability at 2 µM (HCT-116): 99.7% | viability at 2 µM (DLD-1 [1]): 97.8% | viability at 2 µM (MDA-MB-231 [2]): 92.9%

O=C1C(Cl)=C(NCCN2CCOCC2)C(=O)c2cnccc21
viability at 2 µM (SW480): 100% | viability at 2 µM (U-87 MG): 89.3% | viability at 2 µM (MCF7): 16.4% | viability at 2 µM (HCT-116): 65.1% | viability at 2 µM (DLD-1 [1]): 75.1% | viability at 2 µM (MDA-MB-231 [2]): 85.2%

O=C1C(NCCCCCN2CCOCC2)=C(Cl)C(=O)c2ncccc21
viability at 2 µM (SW480): 31% | viability at 2 µM (U-87 MG): 49.8% | viability at 2 µM (MCF7): 73.9% | viability at 2 µM (HCT-116): 13.7% | IC50 (MDA-MB-231 [3]): 1190 nM | IC50 (DLD-1 [4]): 1940 nM | viability at 2 µM (DLD-1 [1]): 30.5% | viability at 2 µM (MDA-MB-231 [2]): 83.4%

O=C1C(Cl)=C(NCCN2CCOCC2)C(=O)c2c1cccc2[N+](=O)[O-]
viability at 2 µM (SW480): 97.8% | viability at 2 µM (U-87 MG): 105% | viability at 2 µM (MCF7): 109% | viability at 2 µM (HCT-116): 100% | viability at 2 µM (DLD-1 [1]): 93.2% | viability at 2 µM (MDA-MB-231 [2]): 98.2%

O=C1C(Cl)=C(NCCN2CCOCC2)C(=O)c2cc(Cl)ccc21
viability at 2 µM (SW480): 105% | viability at 2 µM (U-87 MG): 98.2% | viability at 2 µM (MCF7): 94% | viability at 2 µM (HCT-116): 86.5% | viability at 2 µM (DLD-1 [1]): 39.3% | viability at 2 µM (MDA-MB-231 [2]): 91.3%

Nc1cccc2c1C(=O)C(Cl)=C(NCCN1CCOCC1)C2=O
viability at 2 µM (SW480): 96% | viability at 2 µM (U-87 MG): 95.9% | viability at 2 µM (MCF7): 98.9% | viability at 2 µM (HCT-116): 98% | viability at 2 µM (DLD-1 [1]): 91.3% | viability at 2 µM (MDA-MB-231 [2]): 98%
